# According to paper PMC4026384, “Antibacterial Activity of THAM Trisphenylguanide against Methicillin-Resistant Staphylococcus aureus” (PLoS ONE, 2014):
# Entries after “also recorded” stand apart in the source; their conditions may differ. Where two headings read alike, the source gives them in different places.
# What was measured:
# MRSA strain LAC, USA300 = experiment: Minimum inhibitory concentration (microdilution); format: cell-based, Staphylococcus aureus; details: assay described in Material and Methods; controls of the MRSA leakage assay (Figure S2)
# Experimental: Minimum inhibitory concentration (MIC) values were determined for those compounds showing the most antibacterial activity in the bacterial viability assays (see Supplemental Materials) against each of the strains of bacteria using a microdilution method in 96 well plates with LB media according to guidelines published by the British Society for Antimicrobial Chemotherapy. Minimum bactericidal concentrations (MBC) were determined by plating 10 µL and 100 µL from each well showing no signs of growth after overnight incubation of the MIC plates and determining the minimum concentration showing a 3-log reduction of viable bacteria. MIC and MBC were also determined in cation-adjusted Mueller-Hinton broth (Hardy Diagnostics, Santa Maria, CA) for some compounds and strains.
# MRSA = experiment: Cytoplasmic leakage & bacteriolysis assay; format: cell-based, Staphylococcus aureus; details: 1× to 4×MIC, over the 3 hour period
# Experimental: Bacteria were cultured to mid-log phase (OD600 ∼0.4) in LB media with shaking. Bacteria were then harvested and resuspended in PBS to a concentration of ∼10^8 CFU/mL. […] Bacteria were monitored over time for cytoplasmic leakage via A260 measurements and for cell viability. For A260 readings, sample aliquots were centrifuged for 5 min at 10,000×g at room temperature to remove cellular debris. Viability was monitored by determining the CFU/mL during the first 3 hours post treatment as described above for the kill curve assays.
# [1] = tested on: human breast cancer cell line MDA-MB-231; experiment: Cell toxicity assay (MTS); format: cell-based; details: MDA-231; for CC50: MTS assay, concentration which killed 50% of the cells
# Experimental: (§1) The HaCaT cell line was grown in Epilife medium (MEPI500Ca) with human keratinocyte growth supplement (Invitrogen, San Diego, CA). Both types of cells were harvested using Tryspin/EDTA and diluted to 1×10^5 cells per well in a 96-well plate. Ten concentrations covering five orders of magnitude were tested with six replicates per concentration. […] MTS/PMS solution (Promega, Madison, WI) was added to the wells and absorbance was measured at 490 nm two to four hours later. Data was analyzed using GraphPad Prism version 5.0 (GraphPad Software, La Jolla, CA) using a variable slope inhibition dose response curve.
# [2] = tested on: HaCaT human keratinocytes; experiment: Cell toxicity assay (MTS); format: cell-based; details: for CC50: MTS assay, concentration which killed 50% of the cells
# Experimental: as §1
# MRSA USA300 = experiment: Bacterial viability assay; format: cell-based, Staphylococcus aureus; details: one hour in PBS, CFU, ± SEM
# Experimental: (§2) Supplementary file pone.0097742.s003.doc: Table S1 Bacterial viability assays. Bacteria were grown at 37°C to mid-log phase (OD600 ∼0.4). The bacteria were diluted to approximately 10^4 to 10^5 colony forming units (CFU) per milliliter and added to a solution of phosphate buffered saline (PBS, 16 mM phosphate, 0.14 M NaCl, pH 7.2) containing the compound at varied concentrations. Samples were incubated at 37°C for one hour and then plated on Luria Bertani (LB) agar at appropriate dilutions in PBS. The plates were incubated overnight at 37°C and colonies enumerated the following day. IC50s were calculated from graphs of CFU as a function of compound concentration. Chlorhexidine was used as a positive control. […] (DOC) Click here for additional data file.
# (§3) Bacterial viability assays. Bacteria were grown at 37°C to mid-log phase (OD600 ~0.4). The bacteria were diluted to approximately 10^4 to 10^5 colony forming units (CFU) per milliliter and added to a solution of phosphate buffered saline (PBS, 16 mM phosphate, 0.14 M NaCl, pH 7.2) containing the compound at varied concentrations. Samples were incubated at 37°C for one hour and then plated on Luria Bertani (LB) agar at appropriate dilutions in PBS. The plates were incubated overnight at 37°C and colonies enumerated the following day. IC50s were calculated from graphs of CFU as a function of compound concentration. Chlorhexidine was used as a positive control.
# E. coli K91 = experiment: Bacterial viability assay; format: cell-based, Escherichia coli; details: one hour in PBS, CFU, ± SEM
# Experimental: as §2, §3
# S. aureus RN4220 = experiment: Bacterial viability assay; format: cell-based, Staphylococcus aureus; details: one hour in PBS, CFU, ± SEM
# Experimental: (§4) Supplementary file pone.0097742.s003.doc: Table S1 Bacterial viability assays. Bacteria were grown at 37°C to mid-log phase (OD600 ∼0.4). The bacteria were diluted to approximately 10^4 to 10^5 colony forming units (CFU) per milliliter and added to a solution of phosphate buffered saline (PBS, 16 mM phosphate, 0.14 M NaCl, pH 7.2) containing the compound at varied concentrations. Samples were incubated at 37°C for one hour and then plated on Luria Bertani (LB) agar at appropriate dilutions in PBS. The plates were incubated overnight at 37°C and colonies enumerated the following day. IC50s were calculated from graphs of CFU as a function of compound concentration. Chlorhexidine was used as a positive control. Included are those guanide (G), biguanide (BG), phenylguanide (ΦG) compounds that had some antibacterial activity in an initial screen at 30 and 100 µM, as well as their and parent amines. Compounds synthesized from 1,4-butanediamine, 1,6-hexanediamine, trisethylaminomelamine, trisbutylaminomelamine, and the dendrimer PAMAM (G0) were not active against E. coli, P aeruginosa, or S. aureus so they were not tested against the remaining bacteria (data not shown). (DOC) Click here for additional data file.
# as §4, with “Bacterial” for “Supplementary file pone.0097742.s003.doc: Table S1 Bacterial”, “~0.4).” for “∼0.4).”, “μM,” for “µM,”, “shown).” for “shown). (DOC) Click here for additional data file.”
# [3] = tested on: A. baumannii ATCC BAA1605; experiment: Bacterial viability assay; format: cell-based, Acinetobacter baumannii; details: one hour in PBS, CFU, ± SEM
# Experimental: as §2, §3
# A. baumannii ATCC 19606 = experiment: Bacterial viability assay; format: cell-based, Acinetobacter baumannii; details: one hour in PBS, CFU, ± SEM
# Experimental: as §2, §3
# E. faecalis V583 = experiment: Bacterial viability assay; format: cell-based, Enterococcus faecalis; details: one hour in PBS, CFU, ± SEM
# Experimental: as §2, §3
# E. faecalis MSU#10 = experiment: Bacterial viability assay; format: cell-based, Enterococcus faecalis; details: E. faecalis MSU#10, one hour in PBS, CFU, ± SEM, read-out: IC50
# Experimental: as §2, §3
# P. aeruginosa PA01 = experiment: Bacterial viability assay; format: cell-based, Pseudomonas aeruginosa; details: one hour in PBS, CFU, ± SEM
# Experimental: as §2, §3
# [4] = Cell toxicity assay (MTS); format: cell-based, human; details: human, MTS assay, concentration which killed 50% of the cells
# Experimental: as §1
# [5] = MDA-MB-231 breast cancer cells (ATCC HTB-26), MDA-231
# [6] = Acinetobacter baumannii, ATCCBAA1605, 1 h
# [7] = Acinetobacter baumannii, ATCC19606, 1 h
Structure (SMILES),Relative to chlorhexidine (factor by which cytotoxicity was reduced) [1],CC50 [1],Relative to chlorhexidine (factor by which cytotoxicity was reduced) [2],CC50 [2],IC50 (MRSA USA300),IC50 (E. coli K91),IC50 (S. aureus RN4220),IC50 [3],IC50 (A. baumannii ATCC 19606),IC50 (E. faecalis V583),IC50 (E. faecalis MSU#10),IC50 (P. aeruginosa PA01),also measured
CC1(C)S[C@@H]2[C@H](NC(=O)[C@H](N)c3ccccc3)C(=O)N2[C@H]1C(=O)O [Ampicillin],,,,,,,,,,,,,"MIC of control antibiotics (MRSA strain LAC, USA300): 32 µg/mL; change in A260 of culture supernatant (cytoplasmic leakage), control antibiotics (MRSA): no increase in A260; also recorded: Significant increases in A260 were not seen"
N=C(NCCCCN(CCCNC(=N)Nc1ccccc1)C(=N)Nc1ccccc1)Nc1ccccc1 [Spermidine-3ΦG],170,430 µg/mL,210,400 µg/mL,> 100 µM,3.2 ± 0.9 µM,> 100 µM,> 100 µM,> 100 µM,> 100 µM,> 100 µM,> 100 µM,
NCCCCNCCCN [Spermidine],8.5,,>79,,,,,,,,,,"CC50 ([4]; HaCaT keratinocytes): > 150 µg/mL; CC50 [4, 5]: 22 µg/mL; IC50 (MRSA USA300; Staphylococcus aureus, 1 h): > 100 µM; IC50 (E. coli K91; Escherichia coli, 1 h): > 100 µM; IC50 (S. aureus RN4220; Staphylococcus aureus, 1 h): > 100 µM; IC50 [3, 6]: > 100 µM; IC50 (A. baumannii ATCC 19606; [7]): > 100 µM; IC50 (E. faecalis V583; Enterococcus faecalis, 1 h): > 100 µM; IC50 (E. faecalis MSU#10; Enterococcus faecalis, 1 h): > 100 µM; IC50 (P. aeruginosa PA01; Pseudomonas aeruginosa, 1 h): > 100 µM"
N=C(NCCCN(CCCCN(CCCNC(=N)Nc1ccccc1)C(=N)Nc1ccccc1)C(=N)Nc1ccccc1)Nc1ccccc1 [Spermine-4ΦG],>43,>110 µg/mL,56,110 µg/mL,> 100 µM,23 ± 16 µM,,≥ 100 µM,≥ 100 µM,> 100 µM,> 100 µM,> 100 µM,
NCCCNCCCCNCCCN [Spermine],3.7,,>110,,,,,,,,,,"CC50 ([4]; HaCaT keratinocytes): > 200 µg/mL; CC50 [4, 5]: 10 µg/mL; IC50 (MRSA USA300; Staphylococcus aureus, 1 h): > 100 µM; IC50 (E. coli K91; Escherichia coli, 1 h): > 100 µM; IC50 (S. aureus RN4220; Staphylococcus aureus, 1 h): > 100 µM; IC50 [3, 6]: 79 ± 24 µM; IC50 (A. baumannii ATCC 19606; [7]): ≥ 100 µM; IC50 (E. faecalis V583; Enterococcus faecalis, 1 h): > 100 µM; IC50 (E. faecalis MSU#10; Enterococcus faecalis, 1 h): > 100 µM; IC50 (P. aeruginosa PA01; Pseudomonas aeruginosa, 1 h): ≥ 100 µM"
N=C(N)NCCCCCCNc1nc(NCCCCCCNC(=N)N)nc(NCCCCCCNC(=N)N)n1 [THAM-3G],29,74 µg/mL,33,63 µg/mL,> 100 µM,31 ± 12 µM,> 100 µM,14 ± 4 µM,23 ± 14 µM,> 100 µM,> 100 µM,14 ± 3 µM,
NCCCCCCNc1nc(NCCCCCCN)nc(NCCCCCCN)n1 [THAM],>290,>770 µg/mL,100,200 µg/mL,> 100 µM,> 100 µM,> 100 µM,> 100 µM,> 100 µM,> 100 µM,> 100 µM,> 100 µM,
N=C(NCCCCCCCCNc1nc(NCCCCCCCCN)nc(NCCCCCCCCNC(=N)Nc2ccccc2)n1)Nc1ccccc1 [TOAM-2ΦG],,,1.6,3.1 µg/mL,0.6 ± 0.32 µM,0.75 ± 0.09 µM,2.4 ± 0.1 µM,0.96 ± 0.02 µM,0.64 ± 0.19 µM,11 ± 3 µM,6.1 ± 4.9 µM,1.6 ± 0.4 µM,
CNC(C)C1CCC(N)C(OC2C(N)CC(N)C(OC3OCC(C)(O)C(NC)C3O)C2O)O1 (stereo not shown) [gentamicin],,,,,,,,,,,,,"MIC of control antibiotics (MRSA strain LAC, USA300): 0.5 µg/mL; change in A260 of culture supernatant (cytoplasmic leakage), control antibiotics (MRSA): no increase in A260; also recorded: Significant increases in A260 were not seen"
